{"source": "patent US8334287B2", "about": "(Hoffmann-La Roche Inc., priority 2009, dated 2012)", "target": "T1, human mGlu5a receptor (Homo sapiens, UniProt P41594)", "T1 construct": "expressed in transfected cells; host or cells: EBNA cells (transient transfection); membranes prepared from them", "T1 sequence (P41594 21-1180 isoform P41594-2 limits assumed)": "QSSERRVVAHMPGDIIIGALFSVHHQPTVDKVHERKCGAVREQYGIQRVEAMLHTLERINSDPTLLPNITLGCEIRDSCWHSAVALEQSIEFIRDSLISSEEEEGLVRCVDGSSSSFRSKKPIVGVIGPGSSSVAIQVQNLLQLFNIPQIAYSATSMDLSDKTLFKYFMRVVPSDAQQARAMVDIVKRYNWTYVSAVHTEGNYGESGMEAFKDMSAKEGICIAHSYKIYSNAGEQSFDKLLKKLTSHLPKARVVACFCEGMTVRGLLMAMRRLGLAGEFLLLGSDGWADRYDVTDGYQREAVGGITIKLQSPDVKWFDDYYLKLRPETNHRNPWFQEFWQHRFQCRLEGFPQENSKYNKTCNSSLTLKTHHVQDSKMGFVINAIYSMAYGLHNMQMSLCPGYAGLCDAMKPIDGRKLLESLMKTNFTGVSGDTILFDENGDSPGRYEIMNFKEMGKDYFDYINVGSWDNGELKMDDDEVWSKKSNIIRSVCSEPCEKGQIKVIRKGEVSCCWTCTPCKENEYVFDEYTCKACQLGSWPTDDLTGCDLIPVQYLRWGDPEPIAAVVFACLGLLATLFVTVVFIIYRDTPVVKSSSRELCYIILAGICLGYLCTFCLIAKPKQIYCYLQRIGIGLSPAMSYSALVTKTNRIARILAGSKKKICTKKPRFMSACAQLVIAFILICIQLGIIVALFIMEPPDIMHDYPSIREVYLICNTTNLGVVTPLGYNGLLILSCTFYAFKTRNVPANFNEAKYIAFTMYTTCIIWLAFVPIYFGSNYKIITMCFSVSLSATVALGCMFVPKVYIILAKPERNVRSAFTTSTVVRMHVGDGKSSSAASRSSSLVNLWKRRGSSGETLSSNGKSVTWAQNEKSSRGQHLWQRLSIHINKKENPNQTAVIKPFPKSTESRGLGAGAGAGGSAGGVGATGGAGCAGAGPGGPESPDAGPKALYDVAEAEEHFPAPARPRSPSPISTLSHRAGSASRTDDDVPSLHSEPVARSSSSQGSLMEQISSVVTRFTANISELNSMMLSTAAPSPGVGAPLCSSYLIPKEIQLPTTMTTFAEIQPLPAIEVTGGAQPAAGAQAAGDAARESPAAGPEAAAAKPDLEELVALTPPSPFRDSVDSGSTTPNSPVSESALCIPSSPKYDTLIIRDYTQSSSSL", "experiment": "mGlu5a receptor binding, displacement of [3H]MPEP", "conditions": "competing radioligand [3H]MPEP; human mGlu5a receptor transiently transfected into EBNA cells; Ki=IC50/1+L/Kd", "method": "For binding experiments, cDNA encoding human mGlu5a receptor was transiently transfected into EBNA cells using a procedure described by E.-J. Schlaeger and K. Christensen (Cytotechnology 1998, 15, 1-13). For functional assays, [Ca^2+]i measurements were performed largely as described previously (Porter et al., Br J. Pharmacol 1999, 128, 13-20) on stably expressed recombinant human mGlu 5a receptors in HEK-293 cells. The cells were dye loaded using Fluo 4-AM (purchased from Molecular Probes, 2 μM final concentration) [Ca^2+]i measurements were performed using a fluorometric imaging plate reader (FLIPR, Molecular Devices Corporation, La Jolla, Calif., USA). Antagonist evaluation was performed following a 5 minute preincubation with the test compounds followed by the addition of a submaximal addition of agonist.\nThe inhibition (antagonists) curves were fitted with a four parameter logistic equation giving IC50, and Hill coefficient using the iterative non linear curve fitting software Xcel fit.\nThe Ki values of the compounds tested are given. The Ki value is defined by the following formula: Ki=IC50/1+L/Kd in which the IC50 values are those concentrations of the compounds tested in which causes 50% inhibition of the competing radioligand ([^3H]MPEP). [L] is the concentration of radioligand used in the binding experiment and the Kd value of the radioligand is empiracally determined for each batch of membranes prepared.", "data": [{"molecule": "Cc1nc(C#Cc2cccc(Cl)c2)cn1-c1ccn(CCO)c(=O)c1", "note": "[Example 4, 4-[4-(3-chloro-phenylethynyl)-2-methyl-imidazol-1-yl]-1-(2-hydroxy-ethyl)-1H-pyridin-2-one]", "values": [{"measurement": "Ki", "result": 345, "unit": "nM"}]}, {"molecule": "Cc1nc(C#Cc2ccnc(Cl)c2)cn1-c1cnn(C)c(=O)c1", "note": "[Example 22, 5-[4-(2-chloro-pyridin-4-ylethynyl)-2-methyl-imidazol-1-yl]-2-methyl-2H-pyridazin-3-one]", "values": [{"measurement": "Ki", "result": 384, "unit": "nM"}]}, {"molecule": "Cc1nc(C#Cc2cccc(Cl)c2)c(C)n1-c1ccn(C)c(=O)c1", "note": "[Example 26, 4-[4-(3-chloro-phenylethynyl)-2,5-dimethyl-imidazol-1-yl]-1-methyl-1H-pyridin-2-one]", "values": [{"measurement": "Ki", "result": 33, "unit": "nM"}]}, {"molecule": "Cc1nc(C#Cc2cccc(Cl)c2)cn1-c1cccc(=O)n1C", "note": "[Example 15, 6-[4-(3-chloro-phenylethynyl)-2-methyl-imidazol-1-yl]-1-methyl-1H-pyridin-2-one]", "values": [{"measurement": "Ki", "result": 154, "unit": "nM"}]}, {"molecule": "COCCn1ccc(-n2c(C)nc(C#Cc3ccnc(Cl)c3)c2C)cc1=O", "note": "[Example 39, 4-[4-(2-chloro-pyridin-4-ylethynyl)-2,5-dimethyl-imidazol-1-yl]-1-(2-methoxy-ethyl)-1H-pyridin-2-one]", "values": [{"measurement": "Ki", "result": 285, "unit": "nM"}]}, {"molecule": "Cc1cccc(C#Cc2cn(-c3ccn(CCO)c(=O)c3)c(C)n2)c1", "note": "[Example 11, 1-(2-Hydroxy-ethyl)-4-(2-methyl-4-m-tolylethynyl-imidazol-1-yl)-1H-pyridin-2-one]", "values": [{"measurement": "Ki", "result": 265, "unit": "nM"}]}, {"molecule": "Cc1cccc(C#Cc2cn(-c3cc[nH]c(=O)c3)c(C)n2)c1", "note": "[Example 8, 4-(2-Methyl-4-m-tolylethynyl-imidazol-1-yl)-1H-pyridin-2-one]", "values": [{"measurement": "Ki", "result": 113, "unit": "nM"}]}, {"molecule": "Cc1nc(C#Cc2ccnc(Cl)c2)c(C)n1-c1cnn(C)c(=O)c1", "note": "[Example 43, 5-[4-(2-chloro-pyridin-4-ylethynyl)-2,5-dimethyl-imidazol-1-yl]-2-methyl-2H-pyridazin-3-one]", "values": [{"measurement": "Ki", "result": 306, "unit": "nM"}]}, {"molecule": "Cc1nc(C#Cc2cccc(Cl)c2)cn1-c1cncc(=O)[nH]1", "note": "[Example 16, 6-[4-(3-chloro-phenylethynyl)-2-methyl-imidazol-1-yl]-1H-pyrazin-2-one]", "values": [{"measurement": "Ki", "result": 659, "unit": "nM"}]}, {"molecule": "Cc1nc(C#Cc2ccnc(Cl)c2)c(C)n1-c1ccn(C)c(=O)c1", "note": "[Example 36, 4-[4-(2-chloro-pyridin-4-ylethynyl)-2,5-dimethyl-imidazol-1-yl]-1-methyl-1H-pyridin-2-one]", "values": [{"measurement": "Ki", "result": 173, "unit": "nM"}]}, {"molecule": "COCCn1ccc(-n2cc(C#Cc3cccc(Cl)c3)nc2C)cc1=O", "note": "[Example 5, 4-[4-(3-chloro-phenylethynyl)-2-methyl-imidazol-1-yl]-1-(2-methoxy-ethyl)-1H-pyridin-2-one]", "values": [{"measurement": "Ki", "result": 44, "unit": "nM"}]}, {"molecule": "CCn1ccc(-n2c(C)nc(C#Cc3cccc(C)c3)c2C)cc1=O", "note": "[Example 32, 4-[2,5-dimethyl-4-m-tolylethynyl-imidazol-1-yl]-1-ethyl-1H-pyridin-2-one]", "values": [{"measurement": "Ki", "result": 46, "unit": "nM"}]}]}
